Results on 6 compounds are retold here after patent publication US10905148B2, “Systems and methods for monitoring of blood lactate and targeting of blood lactate via nutritional support” (Run Them Sweet LLC, priority 2012, dated 2021).

The test system of data set [1] is lipases and esterases in human plasma. The settings on record: cited from earlier work.
The conditions of data set [2]: infusions of 2N Na+-Pyruvate into swine; cited from earlier work.
The conditions of data set [3]: cited from earlier work.
The subject of data set [4] is lactate dehydrogenase in red blood cells and the lung parenchyma. The note with it: due to lactate dehydrogenase in red blood cells and lung parenchyma; cited from earlier work.
For data set [5] the following is noted: aqueous conditions; cited from earlier work.
Data set [6] can be described thus: Osmolality of infusion solutions. The class given is physicochemical. As for the experimental part:
In its simplest form, the MCC cocktail would be sodium-L-(+)-Lactate prepared by titrating L-(+)-Lactic acid with NaOH. The following describe such procedures: (24, 52, 55-57). Briefly, the MCC infusion cocktail is prepared by mixing concentrated (30-88%) L-(+)-lactic acid solution (e.g., Sigma-Aldrich or PCCA) in 2 N NaOH to pH 4.8. In the example provided, the starting point is a 30% stock lactic acid solution: 300 g 30% lactic acid stock solution is titrated with 133.3 g 2N NaOH and diluted to 1,000 ml with water. This will produce a 11.2% weight-by-volume (“w/v”) MCC cocktail (sodium-L-(+)-Lactate) with an osmolality approximating 2,000 mOsm/l. Depending on the stock lactic acid solution used, a NaOH titrating solution>2 N may be necessary to neutralize stock lactic acid without exceeding the intended volume. Regardless of the specifics of acid titration, a 1.72% Na^+-lactate aqueous solution is isosmotic (308 mOsm/l); consequently, as initially mixed the above described MCC is far too concentrated to be given in a peripheral vein and will need to be diluted to less than 1,000 mOsm/l (a 5.6% Na^+-lactate solution). In a peripheral arm vein and a 5.0-5.6% Na^+-lactate MCC should be given with normal (0.9%, 308 mOsm/l) saline or another isosmotic solution such as […] (dextrose) in water, commonly called D5W (see more below).
In another version of the simplest form, the MCC cocktail would be sodium-L-(+)-Lactate prepared from the dry, powdered salt in deionized water to the concentration intended [e.g., for an isosmotic solution: 154 mM lactate (plus 154 mM Na^+) total osmolarity 308 mOsm/l], and infused in the above-stated amounts to raise arterial [lactate] to the intended levels.
State of the art is to provide parenteral nutritive support to patients using 5% dextrose (D5W, glucose in water, vide supra). Because glucose (dextrose) has a molecular weight of 180, osmolality of D5W is 278 mM, which in the low range of normal plasma osmolality ([…]). Even though the glucose concentration in D5W is 50 times greater than homeostatic in plasma, in terms of its isosmotic effect with glucose alone being the only solute, D5W is isosmotic. Mixing equal isosmotic solutions such as equal volumes of 154 mM Sanguisal-L and D5W glucose will produce an osmolality in the high end of the normal range. As noted earlier, this slightly elevated osmolality because of sodium content will draw fluid from tissues into the vascular compartment, thus mitigating swelling due to injury (15).

Setting [7] is: lactate clamp procedure, exogenous lactate.

Take `CC(O)C(=O)OCC(COC(=O)C(C)O)OC(=O)C(C)O` (stereo not drawn) [Glycerol tri-lactate, glycerol tri-lactate]: in data set [1] (lipases and esterases in human plasma), the “dissociation of individual units in human plasma” value is listed as “rapidly dissociate”.

With `CC(=O)C(=O)[O-].[Na+]` [Na^+-Pyruvate, sodium-L-(+)-Pyruvate], in data set [2], the “arterial [lactate]” value is 8 mM and the “arterial [pyruvate]” value is 3.5 mM.

Take `CC(O)C(=O)O` (stereo not drawn) [lactate, 2-hydroxy-propionate]: the “safety of route and amount of vascular lactate administration” value in data set [3] (approximately 3 mg/kg/min, vascular) is recorded as “safe”. Also, in data set [3] (setting [7]), the “blood pH” value was “raises pH” and the “effects on plasma electrolytes” value is recorded as “without major effects”. Further, the side effects entry in data set [3] (oral or intravenous administration) is listed as “no apparent side effects except mild alkalosis”.

For `CC(=O)C(=O)O` [pyruvate], the conversion in circulation/blood result in data set [4] is “rapidly converted to lactate”. Further, the “stability in aqueous solutions” value in data set [5] is given as “spontaneous degradation”.

Take `C[C@H](O)C(=O)[O-].[Na+]` [sodium-L-(+)-Lactate]: the total osmolarity in data set [6] (154 mM lactate plus 154 mM Na+, isosmotic solution) is listed as 308 mOsm/l. Also, the osmolality in data set [6] (1.72% aqueous solution, isosmotic) is listed as 308 mOsm/l; in data set [6] (5.6% solution), 1,000 mOsm/l; in data set [6] (11.2% w/v MCC cocktail), ~2,000 mOsm/l. Further, in data set [3] (sodium lactate MCC infusion), the “higher blood lactate levels seen/used without ill effects” value is recorded as 6 mM.

For Arginyl lactate, the “dissociation of individual units at neutral pH” value in data set [1] (neutral pH as exists in human plasma) is on record as “dissociate spontaneously”.
